The record followed here is patent publication US20260184702A1, “SYNTHESIS, PHARMACOLOGY AND USE OF NEW WATER-SOLUBLE AND SELECTIVE FMS-LIKE TYROSINE KINASE3 (FLT3) INHIBITORS” (Universität Regensburg, priority 2022, published 2026).

Converted amounts (≈) assume the structure as drawn. “Also recorded” adds a separate entry of the source. Where a name gives a salt, the structure may show the parent alone.

Data set [1] can be described thus: Solubility test by UV-Vis spectroscopy of saturated solutions. It is filed as physicochemical. Particulars: solvent DMSO.
The next data set deals with T1, c-KIT (Homo sapiens, UniProt P10721).
T1 construct: expresses endogenously a high level of wild-type c-KIT; endogenous in cells; host or cells: Mo7e (human acute megakaryoblastic leukemia)
T1 sequence (P10721 26-976): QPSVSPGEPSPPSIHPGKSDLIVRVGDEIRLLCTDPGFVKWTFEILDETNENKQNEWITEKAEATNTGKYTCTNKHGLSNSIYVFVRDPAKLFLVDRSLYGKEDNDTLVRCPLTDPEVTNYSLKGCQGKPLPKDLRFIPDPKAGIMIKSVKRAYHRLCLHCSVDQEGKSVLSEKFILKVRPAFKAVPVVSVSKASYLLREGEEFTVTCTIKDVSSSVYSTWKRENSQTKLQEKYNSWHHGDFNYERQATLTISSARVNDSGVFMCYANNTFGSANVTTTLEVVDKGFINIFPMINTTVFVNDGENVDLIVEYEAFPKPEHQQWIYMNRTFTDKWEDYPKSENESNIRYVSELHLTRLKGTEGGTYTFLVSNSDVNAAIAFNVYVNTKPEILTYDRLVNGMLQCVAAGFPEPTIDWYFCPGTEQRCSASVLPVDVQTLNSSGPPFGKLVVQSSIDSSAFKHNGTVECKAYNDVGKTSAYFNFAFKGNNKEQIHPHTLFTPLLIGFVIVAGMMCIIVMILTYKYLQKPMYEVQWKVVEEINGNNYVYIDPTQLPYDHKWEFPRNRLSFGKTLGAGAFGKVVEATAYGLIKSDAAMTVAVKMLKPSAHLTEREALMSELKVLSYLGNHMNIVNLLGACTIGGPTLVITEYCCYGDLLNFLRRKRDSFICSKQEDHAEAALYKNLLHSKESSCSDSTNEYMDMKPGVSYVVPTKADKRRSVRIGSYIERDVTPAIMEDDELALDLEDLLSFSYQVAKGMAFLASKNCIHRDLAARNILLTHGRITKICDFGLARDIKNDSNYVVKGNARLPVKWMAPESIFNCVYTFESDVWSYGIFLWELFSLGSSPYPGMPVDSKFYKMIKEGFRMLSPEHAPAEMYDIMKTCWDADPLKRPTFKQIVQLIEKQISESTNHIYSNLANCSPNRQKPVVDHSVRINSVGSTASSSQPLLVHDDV
As to the kind of experiment: Cellular c-KIT phosphorylation assay in Mo7e cells (sandwich-ELISA). It is filed as cell-based. Conditions: Mo7e cells, 90 min compound, SCF stimulation; read-out: IC50 [nM] inhibition of c-KIT in phosphorylation assay. As to the method: In the cellular c-KIT phosphorylation assay the human acute megakaryoblastic leukemia cell line Mo7e was used, which expresses endogenously a high level of wild-type c-KIT. Stimulation of these cells with human stem cell factor (SCF) results in receptor tyrosine autophosphorylation. Mo7e cells were plated in RPMI supplemented with 20% FCS and 10 ng/ml GM-CSF in multiwell cell culture plates. After serum- and growth factor-starvation overnight cells were incubated with compounds (90 min at 37° C.) in serum-free medium. […] For stimulation, cells were treated with 100 ng/ml SCF for 3 min at room temperature. After cell lysis quantification of receptor autophosphorylation was assessed in 96 well plates via sandwich-ELISA using a kinase specific capture antibody and an anti-phosphotyrosine detection antibody.
Background: ELISA stands for enzyme-linked immunosorbent assay.

The target in another data set is T2, human FLT3-ITD (Homo sapiens, UniProt P36888).
T2 sequence (P36888 1-993): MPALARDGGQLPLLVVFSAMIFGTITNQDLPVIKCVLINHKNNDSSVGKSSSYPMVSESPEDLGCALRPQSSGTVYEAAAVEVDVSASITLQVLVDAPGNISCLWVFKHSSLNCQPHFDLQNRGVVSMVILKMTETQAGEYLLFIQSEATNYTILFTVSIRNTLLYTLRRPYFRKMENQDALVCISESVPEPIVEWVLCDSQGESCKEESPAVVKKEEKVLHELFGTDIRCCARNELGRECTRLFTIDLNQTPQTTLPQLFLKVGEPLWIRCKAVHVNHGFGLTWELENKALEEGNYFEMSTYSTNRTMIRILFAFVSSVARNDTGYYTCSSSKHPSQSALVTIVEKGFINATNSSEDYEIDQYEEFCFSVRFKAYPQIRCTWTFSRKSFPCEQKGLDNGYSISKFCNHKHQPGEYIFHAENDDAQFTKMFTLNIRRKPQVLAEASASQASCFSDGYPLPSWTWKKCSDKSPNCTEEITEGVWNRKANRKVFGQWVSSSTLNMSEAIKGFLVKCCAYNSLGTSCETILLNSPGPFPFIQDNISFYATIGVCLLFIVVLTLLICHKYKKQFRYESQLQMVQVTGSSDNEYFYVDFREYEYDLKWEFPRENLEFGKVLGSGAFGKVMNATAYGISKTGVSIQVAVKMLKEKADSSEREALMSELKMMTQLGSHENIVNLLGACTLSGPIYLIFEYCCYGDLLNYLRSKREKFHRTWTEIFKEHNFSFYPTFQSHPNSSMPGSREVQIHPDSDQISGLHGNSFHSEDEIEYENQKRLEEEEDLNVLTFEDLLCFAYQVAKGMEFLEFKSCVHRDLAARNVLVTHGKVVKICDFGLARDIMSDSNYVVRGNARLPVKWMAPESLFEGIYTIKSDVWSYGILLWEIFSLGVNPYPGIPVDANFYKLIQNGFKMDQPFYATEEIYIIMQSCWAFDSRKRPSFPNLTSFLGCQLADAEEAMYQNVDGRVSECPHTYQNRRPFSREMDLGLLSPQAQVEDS
As to the kind of experiment: Cellular FLT3-ITD phosphorylation assay in MEF-FLT3-ITD cells (sandwich-ELISA). Conditions: 90 min compound, FLT3-ligand stimulation, read-out: IC50 FLT3-ITD [nM] in phosphorylation assay. Format: cell-based. The procedure: In the cellular FLT3-ITD phosphorylation assay the murine embryonal fibroblast cell line (MEF) was used, which expresses a high level of exogenously introduced full-length human FLT3-ITD. Stimulation of these cells with human FLT3-Ligand results in receptor tyrosine autophosphorylation. MEF-FLT3-ITD cells were plated in DMEM supplemented with […] in multiwell cell culture plates. After serum-starvation overnight cells were incubated with compounds (90 min at 37° C.) in serum-free medium. […] For stimulation, cells were treated with 50 ng/ml FLT3-ligand for 5 min at room temperature. After cell lysis quantification of receptor autophosphorylation was assessed in 96 well plates via sandwich-ELISA using a kinase specific capture antibody and an antiphosphotyrosine detection antibody.

Data set [2] is described as follows: Solubility test by UV-Vis spectroscopy of saturated solutions. Format: physicochemical. Conditions: saturated solution; for Solubility Water: ultrapure water. Put shortly:
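Solubility was measured by UV-Vis spectroscopy on an Agilent Cary 60 over 800-200 nm, using a scan rate of 300.0 nm/min, a 0.50 nm data interval, 0.10 s averaging time and a 10 mm cuvette. Filtered saturated supernatants were diluted into water:ethanol, read at the long-wave absorbance maximum against a calibration curve of at least 6 concentrations, in triplicate.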

The subject of data set [3] is MOLM-13 (acute myeloid leukemia). The data set can be described thus: CellTiter-Blue Cell Viability Assay, MOLM-13. It is filed as cell-based. Conditions: Homo sapiens. The procedure: (§1) EOL-1 (acute myeloid eosinophilic leukemia), MOLM-13 (acute myeloid leukemia), MONO-MAC-1 (acute monocytic leukemia), and MONO-MVAC-6 (acute monocytic leukemia). In vitro screening was performed by Charles River using the CellTiter-Blue® Cell Viability Assay.
(In general: Alamar Blue is a resazurin reagent that responds to reducing activity.)

Data set [4] deals with four hematological cell lines. As to the kind of experiment: CellTiter-Blue Cell Viability Assay, all four hematological cell lines. It is filed as cell-based. Conditions: geometric mean over EOL-1, MOLM-13, MONO-MAC-1, MONO-MAC-6; read-out: IC50 [μM] Geomean. The procedure: as §1
The test system of data set [5] is MONO-MAC-6 (acute monocytic leukemia). The data set can be described thus: CellTiter-Blue Cell Viability Assay, MONO-MAC-6. Format: cell-based. Particulars: Homo sapiens. As to the method: as §1
The test system of data set [6] is EOL-1 (acute myeloid eosinophilic leukemia). As to the kind of experiment: CellTiter-Blue Cell Viability Assay, EOL-1. It is filed as cell-based. Particulars: Homo sapiens, EOL1. As to the method: as §1
Data set [7] has as its system MONO-MAC-1 (acute monocytic leukemia). As to the kind of experiment: CellTiter-Blue Cell Viability Assay, MONO-MAC-1. Format: cell-based. As to the method: as §1
The nature of data set [8]: In vivo MTD study in non-tumor bearing NOD/SCID mice. As to the method:
. Group information and dosing details can be seen in the following Table 7.
. Acclimatization occurred for at least 14 days. […] Dosing of 34c was done as a solution in deionized water, initiated on day 1 and continued for 5 days. One mouse in the 50 mg/kg po group and one in the 75 mg/kg po group lost more weight than 10% in the dosing phase of the study. The weight loss in the 50 mg/kg group was observed after receiving three doses of 34c and after receiving four doses of 34c in the […]. A dosing break was made until the end of dosing for both mice and after a couple of days during the 10-day observation period both mice regained their weight. The body weight was measured daily for all three oral treatment groups for the 5 days of dosing and the following 10-day observational period. The mean relative body weight of the oral treatment group can be seen in FIG. 2. […] Since this observation was made only after dosing, it can be considered it was not caused by the compound.

Data set [9] relates to subcutaneous MV4-11 CDX model. The data set can be described thus: In vivo efficacy study in subcutaneous MV4-11 CDX model in NOD/SCID mice. Particulars: for number of living subjects, day of study 5 / number of living subjects, day of study 6 / number of living subjects, day of study 8 / number of living subjects, day of study 13 / number of living subjects, day of study 26 / number of living subjects, day of study 36: 5 mice.

Consider `CN(C)Cc1c(O)ccc2[nH]c(C(=O)c3cc4cc(NC(=O)Nc5cc(C(C)(C)C)on5)ccc4o3)cc12` [Compound 34b, 1-(5-tert-Butylisoxazol-3-yl)-3-(2-(4-((dimethylamino)methyl)-5-hydroxy-1H-indole-2-carbonyl)benzofuran-5-yl)urea 2,2,2-trifluoroacetate], for which the “Solubility DMSO” value in [1] is recorded as “Soluble”. Moreover, the concentration for half-maximal inhibition (IC50) (commonly the concentration that inhibits the measured activity by half) was determined as 1.8 nM on c-KIT; 3.1 nM at human FLT3-ITD; 0.0002 µM in data set [3]; 0.00074 µM in data set [4]; 0.00065 µM in [5]; 0.02 nM in data set [6]. Moreover, in [7], the half-inhibitory concentration (IC50) was determined as 0.1 µM. Besides, the “Solubility Ethanol” value in data set [2] (2,2,2-trifluoroacetate) stood at 5940 µg/mL (≈ 11.5 mM). Moreover, the “Solubility Water” value in data set [2] (2,2,2-trifluoroacetate) was below 100 µg/mL.
For the molecule `CN1CCN(Cc2c(O)ccc3[nH]c(C(=O)c4cc5cc(NC(=O)Nc6cc(C(C)(C)C)on6)ccc5o4)cc23)CC1` [Compound 33b, 1-(5-(tert-Butyl)isoxazol-3-yl)-3-(2-(5-hydroxy-4-((4-methylpiperazin-1-yl)methyl)-1H-indole-2-carbonyl)benzofuran-5-yl)urea bis(2,2,2-trifluoroacetate)], the IC50 on c-KIT was 3.2 nM; at human FLT3-ITD it was 6.9 nM; in data set [3], 0.00109 µM; in [4], 0.00223 µM; in data set [5] it was 0.00431 µM; in data set [6], 0.05 nM. Moreover, the IC50 in data set [7] came to 0.1 µM. In addition, the “Solubility Ethanol” value in data set [2] (bis(2,2,2-trifluoroacetate)) was determined as 3630 µg/mL (≈ 6.36 mM).
With `CN(C)Cc1c(O)ccc2[nH]c(C(=O)c3cc4cc(NC(=O)Nc5cc(C(C)(C)C)on5)ccc4o3)cc12` [Compound 34c, 1-(5-(tert-Butyl)isoxazol-3-yl)-3-(2-(4-(dimethylamino)methyl)-5-hydroxy-1H-indole-2-carbonyl)benzofuran-5-yl)urea Hydrochloride], the clinical signs result in data set [8] (20 mg/kg and 50 mg/kg po treatment groups) is “no clinical signs observed”. Besides, the clinical signs entry in [8] (75 mg/kg po, the mouse which lost weight, noticed only after dosing, considered not caused by the compound) is “swelling of the right hind limb and foot”. The “possible (tolerated) dose according to tolerability study” value in data set [8] (female, NOD/SCID, mouse, in vivo, po, 5 days) is on record as “up to 75 mg/kg”. Besides, in [8] (one mouse in the 50 mg/kg po group and one in the 75 mg/kg po group, daily, 5 days), the “body weight loss in the dosing phase” value is reported as above 10%. Further, in [2] (Hydrochloride), the “Solubility Ethanol” value stood at 2380 µg/mL and the “Solubility Water” value amounted to 5770 µg/mL. In data set [9] (20 mg/kg po daily 5 days), the “first death (day of study)” value is 9 days; the “number of living subjects, day of study 5” value is recorded as 5; the “number of living subjects, day of study 6” value is 5; the “number of living subjects, day of study 8” value amounted to 5. For the same molecule, in data set [9] (20 mg/kg po daily 5 days), the “number of living subjects, day of study 13” value was found to be 4; the “number of living subjects, day of study 26” value was 4; the “number of living subjects, day of study 36” value worked out at 0. The “study day after which 1 mouse had to be sacrificed” value in data set [9] (20 mg/kg po daily 5 days (treatment group 2)) is listed as 20 days. In addition, the “relative tumor volume, compared with reference compounds” value in [9] (20 mg/kg po daily 5 days, Midostaurin 50 mg/kg, Hydrochloride) is “better results regarding tumor volume measurements than Midostaurin; also recorded: higher efficiency than midostaurin”. In data set [9] (50 mg/kg po daily 5 days), the “number of living subjects, day of study 5” value worked out at 5; the “number of living subjects, day of study 6” value is reported as 5; the “number of living subjects, day of study 8” value is reported as 5; the “number of living subjects, day of study 13” value is on record as 5. Besides, in [9] (50 mg/kg po daily 5 days), the “number of living subjects, day of study 26” value is given as 5 and the “number of living subjects, day of study 36” value was 5. Besides, the “deaths until day 36” value in [9] (50 mg/kg po daily 5 days, Hydrochloride) is on record as “No deaths were observed; also recorded: no deaths were noted”. Also, in data set [9] (50 mg/kg po daily 5 days, references 50 mg/kg, Hydrochloride), the “relative tumor volume, compared with reference compounds” value is reported as “similarly active as Quizartinib; also recorded: much more active than Midostaurin; also recorded: significantly increased efficiency of 34c compared to midostaurin; also recorded: comparable to the efficiency of quizartinib at the same dose”. Besides, the “efficacy and tolerability in terms of overall survival / death counts” value in [9] (34c 20 and 50 mg/kg, references 50 mg/kg, po daily 5 days, Hydrochloride) was “better tolerated; also recorded: significantly better efficacy and tolerability in terms of overall survival than midostaurin; also recorded: significantly better efficiency and tolerability (in terms of overall survival) than quizartinib”. The “relative body weight loss” value in data set [9] (po daily 5 days, 34c 20 and 50 mg/kg, Midostaurin and Quizartinib 50 mg/kg) is “less relative body weight loss”.
